From ChEMBL document CHEMBL3046653, “Synthesis and evaluation of DPPH and anti-inflammatory activities of 2,6-bisbenzylidenecyclohexanone and pyrazoline derivatives” (Med Chem Res, 2012)

What was measured:
RAW264.7 [1] = test: Anti-inflammatory activity in Mus musculus (mouse) RAW264.7 cells assessed as inhibition of IFN-gamma/LPS-induced nitric oxide production after 17 to 20 hr by Griess assay; format: functional, cell-based
[2] = Antioxidant activity assessed as DPPH scavenging activity after 30 min by spectrophotometry; format: functional
RAW264.7 [3] = test: Cytotoxicity against Mus musculus (mouse) RAW264.7 cells at IC50 for NO production by MTT assay; format: cell-based
RAW264.7 [4] = test: Cytotoxicity against Mus musculus (mouse) RAW264.7 cells at >50 uM by MTT assay; format: cell-based
RAW264.7 [5] = test: Cytotoxicity against Mus musculus (mouse) RAW264.7 cells at 25 uM by MTT assay; format: cell-based; conditions: raw264.7, 25 µM

SMILES | IC50 (RAW264.7 [1]) [µM] | IC50 [2] [µM] | Activity (RAW264.7 [3]) | Activity (RAW264.7 [4]) | Activity (RAW264.7 [5])
COc1cc(/C=C2\CCCC3C2=NN(C(C)=O)C3c2ccc(OC(C)=O)c(OC)c2)ccc1OC(C)=O (stereo not drawn) | ≥ 50 | – | – | – | –
COc1cc(/C=C2\CCCC3C2=NN(C(=O)c2ccccc2)C3c2ccc(O)c(OC)c2)ccc1O (stereo not drawn) | 47.1 | – | – | – | –
O=C1/C(=C/c2ccc(O)cc2)CC/C1=C\c1ccc(O)cc1 | ≥ 50 | ≥ 100 | – | – | –
O=C1/C(=C/c2ccc(O)c(O)c2)CC/C1=C\c1ccc(O)c(O)c1 | 20.5 | 14.8 | – | – | –
CC(=O)Oc1ccc(/C=C2\CC/C(=C\c3ccc(OC(C)=O)c(OC(C)=O)c3)C2=O)cc1OC(C)=O | ≥ 50 | ≥ 100 | – | – | –
Fc1ccc(/C=C2\CCCC3C2=NNC3c2ccc(F)cc2)cc1 (stereo not drawn) | ≥ 50 | – | – | – | –
O=C1/C(=C/c2ccc([N+](=O)[O-])cc2)CCC/C1=C\c1ccc([N+](=O)[O-])cc1 | 29.4 | ≥ 100 | – | – | –
Oc1ccc(/C=C2\CCCC3C2=NNC3c2ccc(O)cc2)cc1 (stereo not drawn) | 26.9 | – | – | – | –
COc1cc(/C=C2\CCCC3C2=NNC3c2ccc(O)c(OC)c2)ccc1O (stereo not drawn) | 12.2 | – | Non-toxic | Toxic | –
COc1cc(/C=C2\CC/C(=C\c3ccc(O)c(OC)c3)C2=O)ccc1O | 13.9 | 75 | Non-toxic | Toxic | –
O=C1/C(=C/c2ccc(F)cc2)CC/C1=C\c1ccc(F)cc1 | ≥ 50 | ≥ 100 | – | – | –
CC(=O)N1N=C2/C(=C/c3ccc([N+](=O)[O-])cc3)CCCC2C1c1ccc([N+](=O)[O-])cc1 (stereo not drawn) | ≥ 50 | – | – | – | –
O=C1/C(=C/c2ccc(O)c(O)c2)CCC/C1=C\c1ccc(O)c(O)c1 | 9.43 | 13.3 | – | – | –
O=C1/C(=C/c2cccc(O)c2O)CC/C1=C\c1cccc(O)c1O | 7.94 | 20.7 | – | – | –
COc1cc(/C=C2\CCC/C(=C\c3ccc(O)c(OC)c3)C2=O)ccc1O [CYCLOVALONE] | 6.68 | 51.9 | Non-toxic | Toxic | –
O=C1/C(=C/c2ccc(O)cc2)CCC/C1=C\c1ccc(O)cc1 | 41.6 | ≥ 100 | – | – | –
O=C1/C(=C/c2cccc(O)c2)CCC/C1=C\c1cccc(O)c1 | 6.09 | ≥ 100 | Non-toxic | Toxic | Toxic
COC(=O)[C@@H](N)CCCNC(=N)N[N+](=O)[O-] [L-NAME] | 26.2 | – | – | – | –

SMILES | IC50 (RAW264.7 [1]) [µM] | IC50 [2] [µM] | Activity (RAW264.7 [3]) | Activity (RAW264.7 [4]) | Activity (RAW264.7 [5])
O=[N+]([O-])c1ccc(/C=C2\CCCC3C2=NNC3c2ccc([N+](=O)[O-])cc2)cc1 (stereo not drawn) | ≥ 50 | – | – | – | –
O=C1/C(=C/c2ccc(F)cc2)CCC/C1=C\c1ccc(F)cc1 | ≥ 50 | ≥ 100 | – | – | –
COc1cc(/C=C/C(=O)CC(=O)/C=C/c2ccc(O)c(OC)c2)ccc1O [CURCUMIN] | 21.6 | – | – | – | –
COc1ccc(/C=C2\CCCC3C2=NN(C(C)=O)C3c2ccc(OC)c(OC)c2)cc1OC (stereo not drawn) | ≥ 50 | – | – | – | –
COc1ccc(/C=C2\CCCC3C2=NN(C(=O)c2ccccc2)C3c2ccc(OC)c(OC)c2)cc1OC (stereo not drawn) | 25.1 | – | – | – | –
O=c1c(O)c(-c2ccc(O)c(O)c2)oc2cc(O)cc(O)c12 [QUERCETIN] | – | 21.5 | – | – | –
COc1cc(/C=C2\CCC/C(=C\c3ccc(OC(C)=O)c(OC)c3)C2=O)ccc1OC(C)=O | 13.3 | ≥ 100 | – | – | –
COc1ccc(/C=C2\CCCC3C2=NNC3c2ccc(OC)c(OC)c2)cc1OC (stereo not drawn) | 38.7 | – | – | – | –
COc1ccc(/C=C2\CCC/C(=C\c3ccc(OC)c(OC)c3)C2=O)cc1OC | 19.8 | ≥ 100 | – | – | –
CC(=O)Oc1ccc(/C=C2\CCC/C(=C\c3ccc(OC(C)=O)c(OC(C)=O)c3)C2=O)cc1OC(C)=O | 6.84 | ≥ 100 | – | – | –
CCC(=O)Oc1ccc(/C=C2\CCC/C(=C\c3ccc(OC(=O)CC)c(OC)c3)C2=O)cc1OC | 8.02 | ≥ 100 | – | – | –
O=C(c1ccccc1)N1N=C2/C(=C/c3ccc(F)cc3)CCCC2C1c1ccc(F)cc1 (stereo not drawn) | ≥ 50 | – | – | – | –
CC(=O)N1N=C2/C(=C/c3ccc(F)cc3)CCCC2C1c1ccc(F)cc1 (stereo not drawn) | ≥ 50 | – | – | – | –
COc1cc(/C=C2\CC/C(=C\c3ccc(OC(C)=O)c(OC)c3)C2=O)ccc1OC(C)=O | ≥ 50 | ≥ 100 | – | – | –
O=C(c1ccccc1)N1N=C2/C(=C/c3ccc([N+](=O)[O-])cc3)CCCC2C1c1ccc([N+](=O)[O-])cc1 (stereo not drawn) | ≥ 50 | – | – | – | –
O=C1/C(=C/c2cccc(O)c2)CC/C1=C\c1cccc(O)c1 | ≥ 50 | ≥ 100 | – | – | –
O=C1/C(=C/c2ccc(O)cc2O)CC/C1=C\c1ccc(O)cc1O | ≥ 50 | 50.6 | – | – | –
